# Experimental data from patent US20040037897A1, “Treatment of drug resistant organisms” (priority 2000, published 2004).
# System: Staphylococcus aureus organisms
# Test: In vitro tests of susceptibility to NO
# Type: cell-based
smiles,measurement,value
"[N]=O [NO, Nitric oxide]",susceptibility to NO,susceptible
